In patent US20230203029A1 (priority 2020, published 2023):
Read-outs that look alike come from different tables or passages of the source.

How the values were obtained:
[1] = biological target: T1, recombinant human AXL expressed in live cells (HEK, AXL-Nanoluc fusion vector) (Homo sapiens, UniProt P30530); assay: Assay 3 AXL cellular target engagement (NanoBRET TE) assay; type: cell-based
T1 construct: host or cells: HEK
T1 sequence (P30530 26-894): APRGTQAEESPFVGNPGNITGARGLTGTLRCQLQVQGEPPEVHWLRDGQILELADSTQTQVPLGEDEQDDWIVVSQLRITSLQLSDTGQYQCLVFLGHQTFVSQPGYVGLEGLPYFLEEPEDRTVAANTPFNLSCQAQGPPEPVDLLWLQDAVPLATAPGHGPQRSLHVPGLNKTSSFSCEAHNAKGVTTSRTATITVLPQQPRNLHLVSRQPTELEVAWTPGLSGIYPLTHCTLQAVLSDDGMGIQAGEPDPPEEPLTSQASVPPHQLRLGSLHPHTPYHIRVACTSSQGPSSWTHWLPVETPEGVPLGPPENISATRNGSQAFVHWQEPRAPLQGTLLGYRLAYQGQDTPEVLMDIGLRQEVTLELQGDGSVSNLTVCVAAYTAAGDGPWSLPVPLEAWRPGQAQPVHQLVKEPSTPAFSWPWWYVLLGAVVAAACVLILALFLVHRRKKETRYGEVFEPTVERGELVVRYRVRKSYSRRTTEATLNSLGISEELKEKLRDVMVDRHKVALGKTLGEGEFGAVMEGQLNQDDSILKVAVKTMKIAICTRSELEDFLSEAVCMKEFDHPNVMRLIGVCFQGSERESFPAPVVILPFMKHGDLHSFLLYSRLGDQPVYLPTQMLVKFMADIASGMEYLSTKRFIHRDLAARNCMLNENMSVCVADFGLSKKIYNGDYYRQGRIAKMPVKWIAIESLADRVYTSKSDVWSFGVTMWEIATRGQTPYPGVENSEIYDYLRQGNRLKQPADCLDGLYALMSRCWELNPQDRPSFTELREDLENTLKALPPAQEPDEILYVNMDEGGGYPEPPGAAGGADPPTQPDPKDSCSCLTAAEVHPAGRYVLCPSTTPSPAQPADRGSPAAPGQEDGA
Protocol: Assay 3—AXL Cellular Target Engagement (TE) Assay
Compound affinities for recombinant human AXL expressed in live cells were assessed via the Promega NanoBRET TE assay technology. Human Embryonic Kidney (HEK) cells were transiently transfected with the AXL-Nanoluc fusion vector (Promega Cat NV1071) using Fugene HD reagent (Promega E2311). […] Incubations were conducted for 2 h at 37° C., after which 20 μl NanoGlo substrate/inhibitor mix (Promega N2161) was added to each well for 2-3 min. The plate was then read on a BMG Pherastar FSX using a NanoBRET filter to record donor emission at 450 nm and acceptor fluorophore emission at 610 nm. From this the BRET ratio (acceptor 610 nm/donor 450 nm) for each data point was calculated.

[2] = biological target: T2, Ba/F3 Pro B-cell line expressing TEL-human MERTK fusion domain (Homo sapiens, UniProt Q12866); type: cell-based
T2 sequence (Q12866 587-858 limits assumed): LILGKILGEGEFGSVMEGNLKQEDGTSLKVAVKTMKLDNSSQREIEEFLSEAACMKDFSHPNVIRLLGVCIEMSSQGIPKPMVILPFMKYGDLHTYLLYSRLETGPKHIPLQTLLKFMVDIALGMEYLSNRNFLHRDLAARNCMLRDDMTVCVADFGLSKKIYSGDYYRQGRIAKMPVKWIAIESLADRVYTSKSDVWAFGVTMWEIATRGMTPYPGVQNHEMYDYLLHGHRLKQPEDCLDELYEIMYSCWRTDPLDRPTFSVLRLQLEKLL
Method in brief: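 Ba/F3 cells dependent on BCR-AXL or TEL-MERTK fusion kinase (IL3-free; IL3 only for control lines) treated with compound 48 h at 37 °C, 0.25% DMSO. Viability by CellTiter-Glo luminescence; IC50 for half-maximal inhibition of survival from 4-parameter variable-slope fit.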

[3] = cell survival, 48 h, CellTiter-Glo; read-out: TEL-MERTK Ba/F3 IC50

Structure (SMILES) | IC50 [1] [nM] | IC50 [2, 3] [nM] | IC50 ([2]; read-out: TEL-MERTK Ba/F3 IC50; cell survival, 48 h, CellTiter-Glo) [nM]
CC(C)n1cc(C(=O)Nc2ccc(Oc3ccnc4cnc(N5CCNCC5)cc34)cc2)c(=O)c(-c2ccc(F)cc2)c1 [Example 13, 5-(4-Fluorophenyl)-1-isopropyl-4-oxo-N-[4-[(6-piperazin-1-yl-1,7-naphthyridin-4-yl)oxy]phenyl]pyridine-3-carboxamide] | 7.1 | 31 | 
O=C(Nc1ccc(Oc2ccnc3cnc(N4CCN(C5COC5)CC4)cc23)cn1)c1ccnn(-c2ccc(F)cc2)c1=O [Example 20, 2-(4-fluorophenyl)-N-[5-[[6-[4-(oxetan-3-yl)piperazin-1-yl]-1,7-naphthyridin-4-yl]oxy]-2-pyridyl]-3-oxo-pyridazine-4-carboxamide] |  | 20 | 
CC(C)n1cc(C(=O)Nc2ccc(Oc3ccnc4cnc(C(=O)NC5CCN(C)CC5)cc34)cn2)c(=O)n(-c2ccc(F)cc2)c1=O [Example 27.5, 4-[[6-[[3-(4-fluorophenyl)-1-isopropyl-2,4-dioxo-pyrimidine-5-carbonyl]amino]-3-pyridyl]oxy]-N-(1-methyl-4-piperidyl)-1,7-naphthyridine-6-carboxamide] | 14 | 9 | 
O=C(Nc1ccc(Oc2ccnc3cnc(N4CCNCC4)cc23)cc1)c1cccn(-c2ccc(F)cc2)c1=O [Example 12.2, 1-(4-fluorophenyl)-2-oxo-N-[4-[(6-piperazin-1-yl-1,7-naphthyridin-4-yl)oxy]phenyl]pyridine-3-carboxamide] | 28.8 | 56 | 
CC(C)n1cc(C(=O)Nc2ccc(Oc3ccnc4cnc(C(=O)NC5CCN(C)CC5)cc34)cc2)c(=O)c(-c2ccc(F)cc2)c1 [Example 37.1, 4-[4-[[5-(4-fluorophenyl)-1-isopropyl-4-oxo-pyridine-3-carbonyl]amino]phenoxy]-N-(1-methyl-4-piperidyl)-1,7-naphthyridine-6-carboxamide] | 6.1 | 8 | 
CN1CCC(NC(=O)c2cc3c(Oc4ccc(NC(=O)c5cccn(-c6ccccc6)c5=O)cc4F)ccnc3cn2)CC1 [Example 33, 4-[2-fluoro-4-[(2-oxo-1-phenyl-pyridine-3-carbonyl)amino]phenoxy]-N-(1-methyl-4-piperidyl)-1,7-naphthyridine-6-carboxamide] | 63.8 | 58 | 
CN1CCC(NC(=O)c2cc3c(Oc4ccc(NC(=O)c5cn(C)cc(-c6ccc(F)cc6)c5=O)cc4)ccnc3cn2)CC1 [Example 37, 4-[4-[[5-(4-fluorophenyl)-1-methyl-4-oxo-pyridine-3-carbonyl]amino]phenoxy]-N-(1-methyl-4-piperidyl)-1,7-naphthyridine-6-carboxamide] | 33.5 | 50 | 
CN1CCC(NC(=O)c2cc3c(Oc4ccc(NC(=O)c5cn(C6CC6)c(=O)n(-c6ccc(F)cc6)c5=O)cc4)ccnc3cn2)CC1 [Example 15, 4-[4-[[1-Cyclopropyl-3-(4-fluorophenyl)-2,4-dioxo-pyrimidine-5-carbonyl]amino]phenoxy]-N-(1-methyl-4-piperidyl)-1,7-naphthyridine-6-carboxamide] | 33.2 | 159 | 
O=C(Nc1ccc(Oc2ccnc3cnc(N4CCNCC4)cc23)cc1)c1cn(C2CC2)c(=O)n(-c2ccc(F)cc2)c1=O [Example 36, 1-cyclopropyl-3-(4-fluorophenyl)-2,4-dioxo-N-[4-[(6-piperazin-1-yl-1,7-naphthyridin-4-yl)oxy]phenyl]pyrimidine-5-carboxamide] | 25.7 | 160 | 
CN1CCC(NC(=O)c2cc3c(Nc4ccc(NC(=O)c5cccn(-c6ccccc6)c5=O)cc4)ccnc3cn2)CC1 [Example 3, N-(1-methyl-4-piperidyl)-4-[4-[(2-oxo-1-phenyl-pyridine-3-carbonyl)amino]anilino]-1,7-naphthyridine-6-carboxamide] | 7 | 314 | 
C[C@H](CO)n1cc(C(=O)Nc2ccc(Oc3ccnc4cnc(C(=O)NC5CCN(C)CC5)cc34)cc2)c(=O)n(-c2ccc(F)cc2)c1=O [Example 14, 4-[4-[[3-(4-Fluorophenyl)-2,4-dioxo-1-[(1R)-2-hydroxy-1-methyl-ethyl]pyrimidine-5-carbonyl]amino]phenoxy]-N-(1-methyl-4-piperidyl)-1,7-naphthyridine-6-carboxamide] | 31 | 80 | 
CC(C)n1cc(C(=O)Nc2ccc(Oc3ccnc4cnc(N5CCNCC5)cc34)cc2)c(=O)n(-c2ccc(F)cn2)c1=O [Example 12.4, 3-(5-fluoro-2-pyridyl)-1-isopropyl-2,4-dioxo-N-[4-[(6-piperazin-1-yl-1,7-naphthyridin-4-yl)oxy]phenyl]pyrimidine-5-carboxamide] | 12.8 | 100 | 
Cn1cc(C(=O)Nc2ccc(Oc3ccnc4cnc(N5CCNCC5)cc34)cc2)c(=O)c(-c2ccc(F)cc2)c1 [Example 13.1, 5-(4-fluorophenyl)-1-methyl-4-oxo-N-[4-[(6-piperazin-1-yl-1,7-naphthyridin-4-yl)oxy]phenyl]pyridine-3-carboxamide] | 15.9 | 50 | 
Cc1cc(NC(=O)c2cccn(-c3ccccc3)c2=O)ccc1Oc1ccnc2cnc(N3CCNCC3)cc12 [Example 30, N-[3-methyl-4-[(6-piperazin-1-yl-1,7-naphthyridin-4-yl)oxy]phenyl]-2-oxo-1-phenyl-pyridine-3-carboxamide] | 339 |  | 466
CC(C)n1cc(C(=O)Nc2ccc(Oc3ccnc4cnc(N5CCNCC5)cc34)cc2)c(=O)n(-c2ccccn2)c1=O [Example 12.3, 1-isopropyl-2,4-dioxo-N-[4-[(6-piperazin-1-yl-1,7-naphthyridin-4-yl)oxy]phenyl]-3-(2-pyridyl)pyrimidine-5-carboxamide] | 80.8 | 431 | 
